This note sets out measurements from patent publication EP0590885B1, “Antibiotic carbapenem compounds” (ZENECA LIMITED, priority 1992, dated 1994).

What all share (experiment): MIC by agar-dilution technique, Diagnostic Sensitivity Test
Holding throughout (type): cell-based

The subject of one experiment is E. coli TEM. Particulars: Escherichia coli. From the text:
(§1) The following results were obtained for representative compounds on a standard in vitro test system using Diagnostic Sensitivity Test. The antibacterial activity is described in terms of the minimum inhibitory concentration (MIC) determined by the agar-dilution technique with an inoculum size of 10^4 CFU/spot.

Experiment [1] deals with Enterobacter cloacae -029. The following applies: inoculum size 10^4 CFU/spot.
Description: as §1

Another experiment concerns Enterobacter cloacae 108. The following applies: inoculum size 10^4 CFU/spot.
Description: as §1

A further experiment has as its system S. aureus 147N. The following applies: Staphylococcus aureus, inoculum size 10^4 CFU/spot.
Description: as §1

SMILES strings stand for the structures. Converted amounts (≈) assume the structure as drawn.

A word on the MIC: it is the lowest concentration found to suppress growth.

With `C[C@@H](O)[C@H]1C(=O)N2C(C(=O)O)=C(S[C@@H]3CN[C@H](C(=O)Nc4cccc(/C=C/C(=O)O)c4)C3)[C@H](C)[C@H]12` [Example 1, (1R,5S,6S,8R,2'S,4'S)-2-(2-(3-(E-2-Carboxy-1-ethenyl)phenylcarbamoyl)pyrrolidin-4-ylthio)-6-(1-hydroxyethyl)-1-methylcarbapenem-3-carboxylic acid], the MIC with E. coli TEM was determined as 0.03 µg/mL (≈ 0.0598 µM); in experiment [1], 0.13 µg/mL (≈ 0.259 µM); in the experiment on Enterobacter cloacae 108, 2 µg/mL (≈ 3.99 µM); in the experiment with S. aureus 147N, 0.13 µg/mL (≈ 0.259 µM).

In the case of `C[C@@H](O)[C@H]1C(=O)N2C(C(=O)O)=C(S[C@@H]3CN[C@H](C(=O)Nc4cc(/C=C/C(=O)O)ccc4O)C3)[C@H](C)[C@H]12` [Example 2, (1R,5S,6S,8R,2'S,4'S)-2-(2-(3-(E-2-Carboxy-1-ethenyl)-6-hydroxyphenylcarbamoyl)pyrrolidin-4-ylthio)-6-(1-hydroxyethyl)-1-methylcarbapenem-3-carboxylic acid], the minimum inhibitory concentration (MIC) stood at 0.06 µg/mL (≈ 0.116 µM) in the experiment with E. coli TEM, 0.25 µg/mL (≈ 0.483 µM) in experiment [1], 4 µg/mL (≈ 7.73 µM) with Enterobacter cloacae 108 and 0.25 µg/mL (≈ 0.483 µM) in the experiment on S. aureus 147N.

Take `C[C@@H](O)[C@H]1C(=O)N2C(C(=O)O)=C(S[C@@H]3CN[C@H](C(=O)Nc4cccc(OCC(=O)O)c4)C3)[C@H](C)[C@H]12` [Example 3, (1R,5S,6S,8R,2'S,4'S)-2-(2-(3-Carboxymethoxyphenylcarbamoyl)pyrrolidin-4-ylthio)-6-(1-hydroxyethyl)-1-methylcarbapenem-3-carboxylic acid]: the MIC against E. coli TEM was 0.03 µg/mL (≈ 0.0593 µM); in experiment [1] it was 0.06 µg/mL (≈ 0.119 µM); against Enterobacter cloacae 108, 1 µg/mL (≈ 1.98 µM); against S. aureus 147N, 0.25 µg/mL (≈ 0.495 µM).

`C[C@@H](O)[C@H]1C(=O)N2C(C(=O)O)=C(S[C@@H]3CN[C@H](C(=O)Nc4cccc(C(=O)NCC(=O)O)c4)C3)[C@H](C)[C@H]12` [Example 7, (1R,5S,6S,8R,2'S,4'S)-2(2-(3-Carboxymethylaminocarbonylphenylcarbamoyl)-pyrrolidin-4-ylthio)-6-(1-hydroxyethyl)-1-methylcarbapenem-3-carboxylic acid]: the minimal inhibitory concentration (MIC) with E. coli TEM was found to be 0.03 µg/mL (≈ 0.0563 µM); in experiment [1] it was 0.13 µg/mL (≈ 0.244 µM); with Enterobacter cloacae 108 it was 1 µg/mL (≈ 1.88 µM); with S. aureus 147N it was 0.25 µg/mL (≈ 0.469 µM).

On to `CO/N=C(\C(=O)N[C@@H]1C(=O)N2C(C(=O)O)=C(CSc3nc(=O)c(=O)[nH]n3C)CS[C@H]12)c1csc(N)n1` [ceftriaxone, reference compound], for which the MIC with E. coli TEM amounted to 0.03 µg/mL (≈ 0.0541 µM); in experiment [1], 0.06 µg/mL (≈ 0.108 µM); with Enterobacter cloacae 108 it was 32 µg/mL (≈ 57.7 µM); against S. aureus 147N, 2 µg/mL (≈ 3.61 µM).
